pIC50: −log10 of the molar value. Activity calls are given as the source filed them. No cut-off for these calls is given here.
Assays:
Acetylcholinesterase [1] = target: T1, Acetylcholinesterase (Homo sapiens, UniProt P22303); experiment: Inhibition of human serum BChE using butyrylthiocholine iodide as substrate by spectrophotometric method
Acetylcholinesterase [2] = target: T1, Acetylcholinesterase
Description: (§1) Inhibition of human recombinant AChE using acetylthiocholine iodide as substrate by spectrophotometric method

[3] = target: Acetylcholinesterase (Electrophorus electricus) (UniProt O42275)
Description: (§2) Inhibition of electric eel AChE using acetylthiocholine iodide as substrate by spectrophotometric method

Acetylcholinesterase [4] = target: T1, Acetylcholinesterase; remark: listed apart in the source
Description: as §1

Acetylcholinesterase [5] = target: Acetylcholinesterase (Electrophorus electricus, UniProt O42275)
Acetylcholinesterase (Electrophorus electricus, UniProt O42275), sequence (O42275 whole entry): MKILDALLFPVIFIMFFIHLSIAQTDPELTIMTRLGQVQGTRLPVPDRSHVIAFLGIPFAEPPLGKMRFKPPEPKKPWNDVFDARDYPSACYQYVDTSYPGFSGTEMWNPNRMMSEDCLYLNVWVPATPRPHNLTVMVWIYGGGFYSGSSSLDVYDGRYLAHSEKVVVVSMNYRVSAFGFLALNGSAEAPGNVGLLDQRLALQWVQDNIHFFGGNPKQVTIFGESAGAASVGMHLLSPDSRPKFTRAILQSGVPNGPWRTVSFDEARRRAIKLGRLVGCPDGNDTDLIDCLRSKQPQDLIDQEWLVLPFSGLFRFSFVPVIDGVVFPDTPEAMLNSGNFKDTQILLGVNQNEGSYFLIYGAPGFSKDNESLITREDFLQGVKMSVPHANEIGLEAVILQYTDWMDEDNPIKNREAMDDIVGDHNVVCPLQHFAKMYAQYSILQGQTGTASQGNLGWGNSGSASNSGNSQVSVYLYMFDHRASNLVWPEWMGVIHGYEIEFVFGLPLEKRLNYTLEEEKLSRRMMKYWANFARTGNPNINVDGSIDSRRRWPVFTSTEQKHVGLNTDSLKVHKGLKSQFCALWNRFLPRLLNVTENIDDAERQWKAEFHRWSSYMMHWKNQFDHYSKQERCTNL
Description: as §2

Acetylcholinesterase (Electrophorus electricus), sequence (O42275 24-633 limits assumed): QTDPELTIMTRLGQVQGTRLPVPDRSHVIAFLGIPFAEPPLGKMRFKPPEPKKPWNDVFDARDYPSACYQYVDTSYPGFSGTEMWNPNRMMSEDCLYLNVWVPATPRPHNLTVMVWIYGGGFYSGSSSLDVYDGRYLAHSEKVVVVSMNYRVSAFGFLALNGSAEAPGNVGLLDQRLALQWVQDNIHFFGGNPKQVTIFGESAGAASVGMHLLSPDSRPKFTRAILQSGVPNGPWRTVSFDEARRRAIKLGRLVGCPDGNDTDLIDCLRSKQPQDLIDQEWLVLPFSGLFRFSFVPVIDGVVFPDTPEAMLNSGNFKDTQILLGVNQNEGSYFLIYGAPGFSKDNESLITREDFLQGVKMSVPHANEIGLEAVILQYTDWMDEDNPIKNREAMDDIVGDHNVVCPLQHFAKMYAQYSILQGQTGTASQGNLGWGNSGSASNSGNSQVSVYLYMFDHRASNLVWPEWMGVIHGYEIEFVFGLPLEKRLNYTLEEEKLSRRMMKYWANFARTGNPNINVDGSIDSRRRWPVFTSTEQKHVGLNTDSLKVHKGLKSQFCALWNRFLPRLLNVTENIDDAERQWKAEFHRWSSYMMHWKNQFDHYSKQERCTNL
T1 sequence (P22303 whole entry): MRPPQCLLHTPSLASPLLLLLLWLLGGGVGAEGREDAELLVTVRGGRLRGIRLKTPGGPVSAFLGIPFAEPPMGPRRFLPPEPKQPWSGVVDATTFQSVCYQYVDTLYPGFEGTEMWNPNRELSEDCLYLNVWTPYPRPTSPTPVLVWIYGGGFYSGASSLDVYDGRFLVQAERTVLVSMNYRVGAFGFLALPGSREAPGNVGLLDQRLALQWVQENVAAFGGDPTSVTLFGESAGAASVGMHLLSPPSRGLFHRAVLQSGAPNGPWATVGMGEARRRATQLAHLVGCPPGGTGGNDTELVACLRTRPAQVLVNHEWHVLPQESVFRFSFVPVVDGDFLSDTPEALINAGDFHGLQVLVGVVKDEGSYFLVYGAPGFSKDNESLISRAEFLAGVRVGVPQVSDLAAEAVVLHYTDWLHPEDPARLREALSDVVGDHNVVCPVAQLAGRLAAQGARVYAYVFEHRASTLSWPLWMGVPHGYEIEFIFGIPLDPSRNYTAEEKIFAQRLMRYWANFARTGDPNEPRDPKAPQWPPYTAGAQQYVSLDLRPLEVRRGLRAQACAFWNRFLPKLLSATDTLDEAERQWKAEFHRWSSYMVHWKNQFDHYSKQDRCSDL

| SMILES | inhibition (Acetylcholinesterase [1]) | inhibition (Acetylcholinesterase [2]) | inhibition [3] | pIC50 (Acetylcholinesterase [4]) | pIC50 (Acetylcholinesterase [5]) |
| --- | --- | --- | --- | --- | --- |
| CCCC(=O)OCCCc1cc(OC)c2oc(-c3ccc4c(c3)OCO4)cc2c1 | inactive |  |  |  |  |
| COc1cc(CCC(=O)O)cc2cc(-c3ccc4c(c3)OCO4)oc12 | inactive | inactive | inactive |  |  |
| CCCCC/C=C\C/C=C\CCCCCCCC(=O)OCCCc1cc(OC)c2oc(-c3ccc4c(c3)OCO4)cc2c1 | inactive |  |  | 5.77 | 5.85 |
| CC[C@H](C)C(=O)OCCCc1ccc2oc(-c3ccc4c(c3)OCO4)cc2c1 | inactive |  |  | 5.21 | 5.26 |
| CCC(=O)OCCCc1cc(OC)c2oc(-c3ccc4c(c3)OCO4)cc2c1 | inactive | inactive | inactive |  |  |
| OCCCc1ccc2oc(-c3ccc4c(c3)OCO4)cc2c1 | inactive | inactive | inactive |  |  |
| COc1cc(CCCOC(=O)CCCCCCCC=O)cc2cc(-c3ccc4c(c3)OCO4)oc12 | inactive | inactive |  |  |  |
| CCCCC/C=C\C/C=C\CCCCCCCC(=O)OCCCc1ccc2oc(-c3ccc4c(c3)OCO4)cc2c1 | inactive |  |  | 5.57 | 5.70 |
| COc1cc(CCCOC(=O)NC(C)(C)C)cc2cc(-c3ccc4c(c3)OCO4)oc12 | inactive |  |  |  |  |
| COc1cc(CCCOC(=O)C(C)C)cc2cc(-c3ccc4c(c3)OCO4)oc12 | inactive |  |  |  |  |
| CC[C@H](C)C(=O)OCCCc1cc(OC)c2oc(-c3ccc4c(c3)OCO4)cc2c1 | inactive |  |  | 5.23 | 5.32 |
| COc1cc(CCCO)cc2cc(-c3ccc4c(c3)OCO4)oc12 | inactive | inactive | inactive |  |  |
| CCCCCCCC/C=C\CCCCCCCC(=O)OCCCc1cc(OC)c2oc(-c3ccc4c(c3)OCO4)cc2c1 [EGONOL OLEATE] | inactive |  |  | 5.74 | 5.85 |
| COc1cc(CCCOC(=O)Nc2ccccc2)cc2cc(-c3ccc4c(c3)OCO4)oc12 | inactive |  |  | 5.35 | 5.48 |
| COc1cc(CCCOC(C)=O)cc2cc(-c3ccc4c(c3)OCO4)oc12 | inactive | inactive | inactive |  |  |
| O=CCCCCCCCC(=O)OCCCc1ccc2oc(-c3ccc4c(c3)OCO4)cc2c1 | inactive | inactive |  |  |  |
| COc1cc(CCC=O)cc2cc(-c3ccc4c(c3)OCO4)oc12 | inactive | inactive | inactive |  |  |
| CCCCCCCC/C=C\CCCCCCCC(=O)OCCCc1ccc2oc(-c3ccc4c(c3)OCO4)cc2c1 | inactive |  |  | 5.51 | 5.66 |
| CC(=O)OCCCc1ccc2oc(-c3ccc4c(c3)OCO4)cc2c1 | inactive | inactive | inactive |  |  |

Reference: ChEMBL document CHEMBL1833820, “Benzofurans from Styrax agrestis as acetylcholinesterase inhibitors: structure-activity relationships and molecular modeling studies” (J Nat Prod, 2011)
